Reference: patent publication US6451568B1, “Cloning of human choline ethanolaminephospho transferases synthesis of phosphatidyl choline phosphatidyle thanolamine and platelet activating factor” (Dalhousie University, priority 1998, dated 2002)
Several values for one entry are separate records, joined by “and”; a condition that tells them apart may be missing. Equal entries are not always repeated. Entries after “also recorded” stand apart in the source; their conditions may differ.

T1: hCEPT1p (Homo sapiens, UniProt Q9Y6K0)
T1 construct: All of the hCEPT1p detected in S. cerevisiae was full length; made in house; host or cells: S. cerevisiae HJ091 (cpt1::LEU2 ept1-), plasmid pAH9, microsomal membranes
T1 sequence (Q9Y6K0 1-416): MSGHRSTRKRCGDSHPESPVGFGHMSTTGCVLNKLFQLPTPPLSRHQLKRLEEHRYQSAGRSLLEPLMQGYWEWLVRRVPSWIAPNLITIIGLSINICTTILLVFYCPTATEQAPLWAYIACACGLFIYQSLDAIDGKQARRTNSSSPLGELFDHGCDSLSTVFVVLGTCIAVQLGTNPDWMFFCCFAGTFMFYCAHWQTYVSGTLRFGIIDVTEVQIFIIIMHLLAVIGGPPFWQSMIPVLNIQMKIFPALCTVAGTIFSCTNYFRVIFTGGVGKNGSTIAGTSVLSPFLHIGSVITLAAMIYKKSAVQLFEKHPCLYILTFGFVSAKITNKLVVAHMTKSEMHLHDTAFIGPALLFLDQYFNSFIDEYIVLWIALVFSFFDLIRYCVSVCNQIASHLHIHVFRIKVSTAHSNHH

T2: hCEPT2 (Homo sapiens, UniProt Q8WUD6)
T2 construct: A full length cDNA was isolated using the Genetrapper™ system technology; expressed in transfected cells; host or cells: HEK293s cells, plasmid pCMVsport-hCEPT2 (clone from the pCMV-Sport human brain cDNA library), microsomal membranes
T2 sequence (Q8WUD6 2-406): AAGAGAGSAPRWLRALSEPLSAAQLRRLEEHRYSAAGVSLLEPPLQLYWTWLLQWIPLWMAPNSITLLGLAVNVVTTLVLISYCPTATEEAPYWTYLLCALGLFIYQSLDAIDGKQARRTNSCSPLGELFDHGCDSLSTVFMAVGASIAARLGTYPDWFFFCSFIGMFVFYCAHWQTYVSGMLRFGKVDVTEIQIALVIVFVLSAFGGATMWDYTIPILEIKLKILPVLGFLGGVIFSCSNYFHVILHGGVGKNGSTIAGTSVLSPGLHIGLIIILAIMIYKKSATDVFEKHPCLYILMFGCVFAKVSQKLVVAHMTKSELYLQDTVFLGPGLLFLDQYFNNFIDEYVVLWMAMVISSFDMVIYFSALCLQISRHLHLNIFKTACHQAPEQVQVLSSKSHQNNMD


Assays:
[1] = target: T1, hCEPT1p; assay: Choline-/ethanolaminephosphotransferase enzyme assay, microsomal membranes of S. cerevisiae HJ091 expressing hCEPT1; type: biochemical; conditions: for Specific activity with CDP-choline (in words): CDP-choline as donor, synthesis of PAF, acyl-PAF, di10:0 PtdCho; for Enzyme activity, CDP-choline: phosphobase donor CDP-choline; for Enzyme activity, CDP-choline / Enzyme activity, CDP-ethanolamine: diradylglycerol as acceptor substrate, hCEPT1p in S. cerevisiae HJ091 microsomes; for Enzyme activity, CDP-ethanolamine: phosphobase donor CDP-ethanolamine
Description: Diradylglycerols or ceramides were dried under nitrogen gas and resuspended in 0.015% (w/v) Tween 20™ by sonication. […] Assays were incubated at 37° C. for 15 min and activity terminated by the addition of 3 ml CHCl3/ CH3OH (2/1, v/v) followed by 1.5 ml 0.9% (w/v) KCl. Tubes were vortexed and phase separation facilitated by centrifugation at 2000 g for 10 min. The aqueous phase was aspirated and the organic phase was washed twice with 1.5 ml 40% (v/v) CH3OH. An aliquot of the organic phase was dried in a scintillation vial and radioactivity was determined.

[2] = target: T2, hCEPT2; assay: Choline-/ethanolaminephosphotransferase activity of microsomes from HEK293s cells overexpressing hCEPT2; type: biochemical
Text: A full length cDNA was isolated using the Genetrapper™ system technology (Life Technologies). A primer corresponding to the most 5′ RACE extneded sequence in hand, […] (SEQ ID NO: 11) was biotinylated using terminal deoxynucleotide transferase and hybridized in solution to a single stranded human brain cDNA library that had been generated by digestion of the library with Gene II protein and exonuclease III. Avidin bound to magnetic beads was used to selectively precipitate the biotinylated probe/hybridized cDNA complex, thus enriching the library for cDNAs complementary to the oligonucleotide used. The single stranded cDNAs were extended using Klenow and E. coli were transformed and screened for positive clones with the end labeled antisense oligo, […], found within the original EST 67440. Plasmid DNA from positive colonies was amplified and hCEPT2 specific inserts confirmed and sized by PCR.
Diradylglycerols or ceramides were dried under nitrogen gas and resuspended in 0.015% (w/v) Tween 20™ by sonication. Unless otherwise indicated, assay buffer contained 100 mM Tris-HCl (pH 8.0), 20 mM MgCl2, 1 mM EDTA, 1 mM diradylglycerol or ceramide (final Tween 20 concentration of 0.00375%, w/v), and 10 μg of microsomal protein. […] Assays were incubated at 37° C. for 15 min and activity terminated by the addition of 3 ml CHCl3/ CH3OH (2/1, v/v) followed by 1.5 ml 0.9% (w/v) KCl. Tubes were vortexed and phase separation facilitated by centrifugation at 2000 g for 10 min. The aqueous phase was aspirated and the organic phase was washed twice with 1.5 ml 40% (v/v) CH3OH. An aliquot of the organic phase was dried in a scintillation vial and radioactivity was determined. Samples were routinely analyzed by thin layer chromatography on silica gel plates in a solvent system of CHCl3/CH3OH/NH4OH/H2) (70/30/4/2, v/v) to confirm the synthesis of PtdCho, PtdEtn, and PAF and their analogues.

Molecule | Enzyme activity, CDP-choline [1] [nmol/min/mg] | Enzyme activity, CDP-ethanolamine [1] [nmol/min/mg] | further results
CCCCCCCCCCCCCCCCOCC(CO)OC(C)=O (stereo not drawn) [1-O-16:0/2:0] | 106.0 ± 5.6 |  | Specific activity with CDP-choline (in words) ([1]; listed as 1O-16:0/2:0): highest specific activities; Specific activity with CDP-choline (in words) ([1]; listed as 16:0/2:0): High activities
NCCOP(=O)(O)OP(=O)(O)OC[C@H]1O[C@@H](n2ccc(N)nc2=O)[C@H](O)[C@@H]1O [CDP-ethanolamine] |  |  | Vmax(app) ([1]; di18:1 as the diradylglycerol substrate): 12.8 nmol/min/mg; Km ([1]; di18:1 as the diradylglycerol substrate, read-out: Km(app)): 109 µM
O[C@@H](CS)[C@@H](O)CS [DTT] |  |  | Effect of DTT on cholinephosphotransferase activity ([1]; DTT 0-5 mM in assay mix, regardless of the diradylglycerol substrate, data not shown): insensitive; also recorded: did not affect
CCCCCCCC(=O)OC[C@H](CO)OC(=O)CCCCCCC [di8:0] | 54.9 ± 6.4 | 3.1 ± 0.4 | 
CCCCCCCCCC(=O)OCC(CO)OC(=O)CCCCCCCCC (stereo not drawn) [di10:0] | 172.5 ± 9.8 | 3.7 ± 0.4 | Specific activity with CDP-choline (in words) [1]: highest specific activities
CCCCCCCCCCCC(=O)OCC(CO)OC(=O)CCCCCCCCCCC (stereo not drawn) [di12:0] | 27.2 ± 6.9 | 2.7 ± 0.3 | 
CCCCCCCCCCCCCC(=O)OC[C@H](CO)OC(=O)CCCCCCCCCCCCC [di14:0] | 6.7 ± 0.2 | 3.7 ± 0.1 | 
CCCCCCCCCCCCCCCC(=O)OC[C@H](CO)OC(=O)CCCCCCCCCCCCCCC [di16:0] | 4.3 ± 0.2 | 3.5 ± 0.2 | 
hCEPT2: human choline/ethanolaminephosphotransferase 2, SEQ ID NO:4 (protein) MAAGAGAGSAPRWLRALSEPLSAAQLRRLEEHRYSAAGVSLLEPPLQLYWTWLLQWIPLWMAPNSITLLGLAVNVVTTLVLISYCPTATEEAPYWTYLLCALGLFIYQSLDAIDGKQARRTNSCSPLGELFDHGCDSLSTVFMAVGASIAARLGTYPDWFFSCSFIGMFVFYCAHWQTYVSGMLRFGKVDVTEIQIALVIVFVLSAFGGATMWDYTIPILEIKLKILPVLGFLGGVIFSCSNYFHVILHGGVGKNGSTIAGTSVLSPGLHIGLIIILAIMIYKKSATDVFEKHPCLYILMFGCVFAKVSQKLVVAHMTKSELYLQDTVFLGPGLLFLDQYFNNFIDEYVVLWMAMVISSFDMVIYFSALCLQISRHLHLNIFKTACHQAPEQVQVLSSKSHQNNMD |  |  | Cholinephosphotransferase activity, mean ([2]; CDP-AA choline, mean of duplicates): 10.673 nmol/min/mg; Cholinephosphotransferase activity ([2]; CDP-AA choline, single determinations): 10.638 nmol/min/mg and 10.708 nmol/min/mg; Ethanolaminephosphotransferase activity, mean ([2]; CDP-AA ethanolamine, mean of duplicates): 2.427 nmol/min/mg; Ethanolaminephosphotransferase activity ([2]; CDP-AA ethanolamine, single determinations): 2.169 nmol/min/mg and 2.685 nmol/min/mg
